Tested on: HT-29
Test: Long-term colony formation assay
Type: cell-based, human
Details: treated at IC50 dose, colonies after 2 weeks; FIGS. 1A and 1B
Description: To confirm, anticancer effects, selected compounds of invention, PDIA1 inhibitors were tested in long-term colony formation assay. For long-term colony formation assay the human colorectal carcinoma cell lines Caco-2 and HT-29 were maintained as follows: HT-29 in RPMI-1640 with HEPES + OPTI-MEM (1:1) and Caco-2 in Eagle’s medium (all from IIET, Wroclaw, Poland) both culture media were supplemented with 2 mM L-glutamine, 1 mM sodium pyruvate (both from Sigma-Aldrich Chemie GmbH, Steinheim, Germany), fetal bovine serum: 5% HT-29 (GE Healthcare), 20% Caco-2 (Sigma-Aldrich Chemie GmbH, Steinheim, Germany), 100 U/ml penicillin, 100 µg/ml streptomycin (both from Polfa Tarchomin S.A., Warsaw, Poland). All cell lines were grown at 37° C. in a humidified atmosphere with 5% CO2. […] The viable cells were counted using a hemocytometer (trypan blue exclusion method) and seeded in triplicates at a density of 5 × 10^2 cells/3 ml and 2.5 × 10^2 cells/3 ml (9.5 cm^2) for Caco-2 and HT-29 respectively. […] After 2 weeks, the colonies were fixed and stained with 1% crystal violet/ethanol (Sigma-Aldrich), documented with Sony Alpha 300 camera (Sony), and counted manually using ImageJ 1.47 software (National Institutes of Health, Bethesda, MD, USA). Surviving fraction (SF) was calculated. […]

## COC(=O)C1CN1S(=O)(=O)c1ccccc1 (stereo not shown) [Compound C-3251, Methyl 1-(benzenesulfonyl)aziridine-2-carboxylate]
  Inhibition of long-term colonies formation, HT-29: much potent towards HT-29 than CaCo-2 cell line

— patent US20230039836A1, “AROMATIC SULPHONAMIDES DERIVATIVES THAT INHIBITS PDI A3, THEIR SYNTHESIS AND USE” (Uniwersytet Jagiellonski, priority 2020, published 2023)
